Values quoted from earlier work as cited in US20080153832A1, “PAN-ALPHA-2 RECEPTOR AGONIST AND RELAXANT COMPOSITIONS FOR TREATING GASTROINTESTINAL MOTILITY DISORDERS” (Allergan, Inc., priority 2006, published 2008).

time to maximum serum concentration: about 1 hour
Compound: CN(C)[C@@H](CCOc1cccc2ccccc12)c1ccccc1 [Dapoxetine]
